Key:
[1] = target: T1, Tyrosine-protein phosphatase non-receptor type 1 (Homo sapiens) (UniProt P18031); assay: (§1) Inhibition of PTP1B (unknown origin)
T1 sequence (whole entry): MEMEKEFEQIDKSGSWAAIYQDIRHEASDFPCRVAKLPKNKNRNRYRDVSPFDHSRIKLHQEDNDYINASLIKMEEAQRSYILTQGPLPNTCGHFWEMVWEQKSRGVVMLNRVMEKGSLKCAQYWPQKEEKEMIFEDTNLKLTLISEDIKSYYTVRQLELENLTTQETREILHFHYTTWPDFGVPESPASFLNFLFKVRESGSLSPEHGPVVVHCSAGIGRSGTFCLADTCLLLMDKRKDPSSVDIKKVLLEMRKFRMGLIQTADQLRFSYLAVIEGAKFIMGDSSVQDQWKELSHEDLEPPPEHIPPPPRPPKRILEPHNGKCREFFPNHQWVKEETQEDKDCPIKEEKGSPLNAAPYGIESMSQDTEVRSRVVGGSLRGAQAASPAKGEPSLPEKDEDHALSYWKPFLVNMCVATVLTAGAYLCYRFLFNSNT

[2] = target: T2, Tyrosine-protein phosphatase non-receptor type 1 (Homo sapiens, UniProt P18031); assay: as §1
T2 sequence (P18031 whole entry): T1 sequence (whole entry)

[3] = target: T1, Tyrosine-protein phosphatase non-receptor type 1 (Homo sapiens); assay: Inhibition of PTP1B (unknown origin) at 100 uM relative to control
[4] = target: T3, Tyrosine-protein phosphatase non-receptor type 2 (Homo sapiens, UniProt P17706); assay: Inhibition of TCPTP (unknown origin)
T3 sequence (P17706 whole entry): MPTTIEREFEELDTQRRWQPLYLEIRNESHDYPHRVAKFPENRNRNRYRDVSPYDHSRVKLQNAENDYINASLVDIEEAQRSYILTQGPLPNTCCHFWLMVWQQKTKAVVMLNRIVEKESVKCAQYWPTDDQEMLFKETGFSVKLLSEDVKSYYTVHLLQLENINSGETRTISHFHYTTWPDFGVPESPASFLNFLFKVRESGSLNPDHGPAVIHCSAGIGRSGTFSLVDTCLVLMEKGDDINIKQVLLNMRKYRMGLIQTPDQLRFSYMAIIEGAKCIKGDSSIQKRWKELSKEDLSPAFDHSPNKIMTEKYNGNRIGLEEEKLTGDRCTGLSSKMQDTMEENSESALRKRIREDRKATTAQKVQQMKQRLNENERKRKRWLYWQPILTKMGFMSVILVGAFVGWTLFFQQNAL

[5] = target: T4, Tyrosine-protein phosphatase non-receptor type 11 (Homo sapiens) (UniProt Q06124); assay: Inhibition of SHP2 (unknown origin) at 100 uM relative to control
T4 sequence (whole entry): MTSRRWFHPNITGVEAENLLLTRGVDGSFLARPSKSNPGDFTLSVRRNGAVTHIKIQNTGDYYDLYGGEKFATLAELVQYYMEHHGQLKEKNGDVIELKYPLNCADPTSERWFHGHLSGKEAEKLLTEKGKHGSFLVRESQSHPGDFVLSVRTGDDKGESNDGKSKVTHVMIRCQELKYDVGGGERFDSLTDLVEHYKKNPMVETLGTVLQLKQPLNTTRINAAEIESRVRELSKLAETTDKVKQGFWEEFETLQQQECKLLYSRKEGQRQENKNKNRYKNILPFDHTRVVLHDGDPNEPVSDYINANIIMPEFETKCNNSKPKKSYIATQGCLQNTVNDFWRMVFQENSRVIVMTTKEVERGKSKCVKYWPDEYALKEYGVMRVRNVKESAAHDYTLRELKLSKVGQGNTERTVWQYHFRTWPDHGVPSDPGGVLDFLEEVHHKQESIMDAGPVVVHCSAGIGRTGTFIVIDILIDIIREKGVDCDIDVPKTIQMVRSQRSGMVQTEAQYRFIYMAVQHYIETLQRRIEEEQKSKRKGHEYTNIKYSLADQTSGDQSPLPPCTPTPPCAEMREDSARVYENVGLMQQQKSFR

[6] = target: Dual specificity protein phosphatase 3 (Homo sapiens) (UniProt P51452); assay: Inhibition of VHR (unknown origin) at 100 uM relative to control
Dual specificity protein phosphatase 3 (Homo sapiens), sequence (P51452 whole entry, looked up): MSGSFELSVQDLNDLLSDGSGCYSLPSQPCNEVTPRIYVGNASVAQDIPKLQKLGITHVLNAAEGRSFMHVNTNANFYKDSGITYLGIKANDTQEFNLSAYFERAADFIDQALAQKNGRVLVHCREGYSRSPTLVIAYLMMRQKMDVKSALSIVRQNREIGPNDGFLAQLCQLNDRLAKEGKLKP

[7] = target: Tyrosine-protein phosphatase non-receptor type 6 (Homo sapiens) (UniProt P29350); assay: Inhibition of SHP1 (unknown origin) at 100 uM relative to control
Tyrosine-protein phosphatase non-receptor type 6 (Homo sapiens), sequence (P29350 whole entry): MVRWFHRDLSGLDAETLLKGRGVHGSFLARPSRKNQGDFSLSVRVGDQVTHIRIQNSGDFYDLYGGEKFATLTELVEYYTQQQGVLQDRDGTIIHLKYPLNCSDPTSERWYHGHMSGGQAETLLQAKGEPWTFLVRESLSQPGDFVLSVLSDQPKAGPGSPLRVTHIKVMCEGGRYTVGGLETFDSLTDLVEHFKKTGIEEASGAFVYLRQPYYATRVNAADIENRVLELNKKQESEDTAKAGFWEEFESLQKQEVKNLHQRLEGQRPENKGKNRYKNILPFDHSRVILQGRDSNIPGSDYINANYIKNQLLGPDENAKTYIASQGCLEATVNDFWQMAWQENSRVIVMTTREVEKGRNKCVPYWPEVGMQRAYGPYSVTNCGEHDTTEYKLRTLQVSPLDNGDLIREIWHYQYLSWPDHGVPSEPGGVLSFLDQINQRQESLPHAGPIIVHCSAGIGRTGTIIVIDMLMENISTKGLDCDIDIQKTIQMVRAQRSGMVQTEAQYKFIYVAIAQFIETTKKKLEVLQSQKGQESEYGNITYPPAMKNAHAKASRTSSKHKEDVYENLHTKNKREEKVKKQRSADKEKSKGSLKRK

[8] = target: T5, Tyrosine-protein phosphatase non-receptor type 2 (Homo sapiens) (UniProt P17706); assay: Inhibition of TCPTP (unknown origin) at 100 uM relative to control
T5 sequence (whole entry): T3 sequence (P17706 whole entry)

| Structure (SMILES) | inhibition [1] | IC50 [2] | other results |
| --- | --- | --- | --- |
| O=C(/C=C/c1ccc(O)c(O)c1)O[C@H]1[C@H](O)C[C@](O)(C(=O)O)C[C@H]1O | Dose-dependent effect | 43.9 µM |  |
| O=C(/C=C/c1ccc(O)c(O)c1)O[C@@H]1C[C@](O)(C(=O)O)C[C@@H](O)[C@H]1O [CHLOROGENIC ACID] | Dose-dependent effect |  | inhibition [3]: 83.1%; IC50 [4]: 77.9 µM; inhibition [5]: 28.4%; inhibition [6]: 30.5%; inhibition [7]: 32%; inhibition [8]: 65.6% |
| O=C(/C=C/c1ccc(O)c(O)c1)O[C@H]1[C@H](O)C[C@](O)(C(=O)O)C[C@H]1OC(=O)/C=C/c1ccc(O)c(O)c1 | Dose-dependent effect | 59.4 µM |  |
| O=C(/C=C/c1ccc(O)c(O)c1)O[C@@H]1C[C@](OC(=O)/C=C/c2ccc(O)c(O)c2)(C(=O)O)C[C@@H](O)[C@H]1O [1,5-O-TRANS-DICAFFEOYLQUINIC ACID] | Dose-dependent effect | 35.4 µM |  |
| O=C(/C=C/c1ccc(O)c(O)c1)O[C@@H]1[C@H](O)C[C@@](O)(C(=O)O)C[C@H]1OC(=O)/C=C/c1ccc(O)c(O)c1 | Dose-dependent effect | 41.5 µM |  |
| O=C(/C=C/c1ccc(O)c(O)c1)O[C@@H]1C[C@](O)(C(=O)O)C[C@@H](OC(=O)/C=C/c2ccc(O)c(O)c2)[C@H]1O | Dose-dependent effect | 37.9 µM |  |
| COc1cc(/C=C/C(=O)O[C@H]2[C@H](O)C[C@](O)(C(=O)O)C[C@H]2OC(=O)/C=C/c2ccc(O)c(OC)c2)ccc1O | Dose-dependent effect | 67.1 µM |  |
| COC(=O)[C@]1(O)C[C@@H](O)[C@@H](OC(=O)/C=C/c2ccc(O)c(O)c2)[C@H](OC(=O)/C=C/c2ccc(O)c(O)c2)C1 | Dose-dependent effect | 56 µM |  |
| O=C(/C=C/c1ccc(O)c(O)c1)O[C@@H]1C[C@@](O)(C(=O)O)C[C@@H](O)[C@@H]1O | Dose-dependent effect |  |  |
| COC(=O)[C@]1(O)C[C@@H](OC(=O)/C=C/c2ccc(O)c(O)c2)[C@@H](O)[C@H](OC(=O)/C=C/c2ccc(O)c(O)c2)C1 | Dose-dependent effect | 42.7 µM |  |
